# Measured values from the supplement of paper PMC10307832.
# How the values were obtained:
# Assay in all cases: relative viability (nuclei count vs DMSO), 5 days (fraction); higher = more cells survive
# NCI-H1650 = details: first compound 4 µM
# Outline: (§1)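 The day after seeding in 1536-well plates, lung cancer cell lines were treated by pin tool with a single drug, or with a fixed anchor-drug dose together with five library-drug doses (not always all listed) in √10 steps. After 5 days, a combined fix-and-stain solution (final 0.05% Triton X-100, 1% formaldehyde, 1 ug/ml Hoechst) was added. Nuclei counted on 4× images gave relative viability as treated counts over vehicle counts, reported as the median of duplicate plates.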
# HCC-15 = tested on: HCC-15
# Outline: as §1
# NCI-H520 = tested on: NCI-H520
# Outline: as §1
# NCI-H1793 = tested on: NCI-H1793
# Outline: as §1
# PC-14 = tested on: PC-14
# Outline: as §1
# NCI-H2405 = tested on: NCI-H2405
# Outline: as §1
# NCI-H647 = tested on: NCI-H647
# Outline: as §1
# LOU-NH91 = tested on: LOU-NH91
# Outline: as §1
# UMC-11 = tested on: UMC-11
# Outline: as §1
# NCI-H441 = tested on: NCI-H441
# Outline: as §1
# 201T = tested on: 201T
# Outline: as §1
# NCI-H1734 = tested on: NCI-H1734
# Outline: as §1
smiles,measurement,setting,value
Cc1sc2c(c1C)C(c1ccc(Cl)cc1)=N[C@@H](CC(=O)OC(C)(C)C)c1nnc(C)n1-2 [JQ1] + CCNC(=O)c1noc(-c2cc(C(C)C)c(O)cc2O)c1-c1ccc(CN2CCOCC2)cc1 [Luminespib] (partner 0.01 µM),relative viability,NCI-H1650,0.206
same,relative viability,HCC-15; first compound 0.04 µM,0.348
same,relative viability,HCC-15; first compound 0.4 µM,0.45
same,relative viability,HCC-15; first compound 1.265 µM,0.298
same,relative viability,HCC-15; first compound 4 µM,0.216
same,relative viability,NCI-H520; first compound 0.04 µM,0.224
same,relative viability,NCI-H520; first compound 0.1265 µM,0.244
same,relative viability,NCI-H520; first compound 0.4 µM,0.218
same,relative viability,NCI-H520; first compound 1.265 µM,0.25
same,relative viability,NCI-H520; first compound 4 µM,0.229
same,relative viability,NCI-H1793; first compound 0.04 µM,0.155
same,relative viability,NCI-H1793; first compound 0.1265 µM,0.209
same,relative viability,NCI-H1793; first compound 0.4 µM,0.197
same,relative viability,NCI-H1793; first compound 1.265 µM,0.318
same,relative viability,NCI-H1793; first compound 4 µM,0.253
same,relative viability,PC-14; first compound 0.04 µM,0.146
same,relative viability,PC-14; first compound 0.1265 µM,0.146
same,relative viability,PC-14; first compound 0.4 µM,0.0705
same,relative viability,PC-14; first compound 1.265 µM,0.0929
same,relative viability,PC-14; first compound 4 µM,0.0646
same,relative viability,NCI-H2405; first compound 0.04 µM,0.795
same,relative viability,NCI-H2405; first compound 0.1265 µM,0.637
same,relative viability,NCI-H2405; first compound 0.4 µM,0.963
same,relative viability,NCI-H2405; first compound 1.265 µM,0.719
same,relative viability,NCI-H2405; first compound 4 µM,0.655
same,relative viability,NCI-H647; first compound 0.04 µM,0.239
same,relative viability,NCI-H647; first compound 0.1265 µM,0.113
same,relative viability,NCI-H647; first compound 0.4 µM,0.134
same,relative viability,NCI-H647; first compound 1.265 µM,0.113
same,relative viability,NCI-H647; first compound 4 µM,0.073
same,relative viability,LOU-NH91; first compound 0.04 µM,0.371
same,relative viability,LOU-NH91; first compound 0.1265 µM,0.371
same,relative viability,LOU-NH91; first compound 0.4 µM,0.31
same,relative viability,LOU-NH91; first compound 1.265 µM,0.285
same,relative viability,LOU-NH91; first compound 4 µM,0.271
same,relative viability,UMC-11; first compound 0.04 µM,0.865
same,relative viability,UMC-11; first compound 0.1265 µM,0.83
same,relative viability,UMC-11; first compound 0.4 µM,0.336
same,relative viability,UMC-11; first compound 1.265 µM,0.278
same,relative viability,UMC-11; first compound 4 µM,0.219
same,relative viability,NCI-H441; first compound 0.04 µM,0.37
same,relative viability,NCI-H441; first compound 0.1265 µM,0.501
same,relative viability,NCI-H441; first compound 0.4 µM,0.419
same,relative viability,NCI-H441; first compound 1.265 µM,0.253
same,relative viability,NCI-H441; first compound 4 µM,0.235
same,relative viability,201T; first compound 0.04 µM,1.06
same,relative viability,201T; first compound 0.1265 µM,0.77
same,relative viability,201T; first compound 0.4 µM,0.745
same,relative viability,201T; first compound 1.265 µM,0.753
same,relative viability,201T; first compound 4 µM,0.522
same,relative viability,NCI-H1734; first compound 0.04 µM,0.254
same,relative viability,NCI-H1734; first compound 0.1265 µM,0.165
same,relative viability,NCI-H1734; first compound 0.4 µM,0.158
same,relative viability,NCI-H1734; first compound 1.265 µM,0.124
same,relative viability,NCI-H1734; first compound 4 µM,0.173
